Laboratory results: publication PMC9645344, “Serotonin-releasing agents with reduced off-target effects” (Molecular Psychiatry, 2022)

Tests used:
extracellular DA = system: extracellular DA; design: method as in PMID 23178523; details: racemic; cited from earlier work
human DAT = target: T1, human DAT (Homo sapiens, UniProt Q01959); assay: DAT uptake inhibition assay in HEK293 cells ([3H]MPP+); assay type: cell-based
T1 construct: expressed in transfected cells
Protocol: Human embryonic kidney 293 (HEK293) cells stably expressing the human isoforms of either DAT or SERT were maintained in Dulbecco’s Modified Eagle Medium (DMEM), supplemented with 10% fetal calf serum at a subconfluent state in humidified atmosphere (5% CO2, 37 °C).
Uptake inhibition assays were performed as described earlier. Briefly, HEK293 cells stably expressing human SERT or DAT were seeded onto poly- D-lysine (PDL) coated 96-well plates (40,000 cells well^−1) the day before an experiment. Prior to the uptake inhibition assay, DMEM was replaced with Krebs-HEPES buffer (KHB, 25 mM HEPES, 120 mM NaCl, 5 mM KCl, 1.2 mM CaCl2, 1.2 mM MgSO4, and 5 mM D-glucose, pH 7.3) and the cells were preincubated with test drugs for 5 min at room temperature. Uptake assays were initiated by adding 20 nM [^3H]MPP^+ to DAT cells or 100 nM [^3H]5-HT to SERT cells. After 180 s (DAT) or 60 s (SERT), the tritiated substrate was removed by aspiration. Cells were washed once with ice-cold KHB, then lysed in 1% sodium dodecyl sulfate (SDS) and subjected to liquid scintillation counting to quantify tritium accumulated in each sample. Non-specific uptake was determined in the presence of mazindol (1 µM) for DAT or paroxetine (1 µM) for SERT and subtracted throughout.

T1 sequence (Q01959 whole entry): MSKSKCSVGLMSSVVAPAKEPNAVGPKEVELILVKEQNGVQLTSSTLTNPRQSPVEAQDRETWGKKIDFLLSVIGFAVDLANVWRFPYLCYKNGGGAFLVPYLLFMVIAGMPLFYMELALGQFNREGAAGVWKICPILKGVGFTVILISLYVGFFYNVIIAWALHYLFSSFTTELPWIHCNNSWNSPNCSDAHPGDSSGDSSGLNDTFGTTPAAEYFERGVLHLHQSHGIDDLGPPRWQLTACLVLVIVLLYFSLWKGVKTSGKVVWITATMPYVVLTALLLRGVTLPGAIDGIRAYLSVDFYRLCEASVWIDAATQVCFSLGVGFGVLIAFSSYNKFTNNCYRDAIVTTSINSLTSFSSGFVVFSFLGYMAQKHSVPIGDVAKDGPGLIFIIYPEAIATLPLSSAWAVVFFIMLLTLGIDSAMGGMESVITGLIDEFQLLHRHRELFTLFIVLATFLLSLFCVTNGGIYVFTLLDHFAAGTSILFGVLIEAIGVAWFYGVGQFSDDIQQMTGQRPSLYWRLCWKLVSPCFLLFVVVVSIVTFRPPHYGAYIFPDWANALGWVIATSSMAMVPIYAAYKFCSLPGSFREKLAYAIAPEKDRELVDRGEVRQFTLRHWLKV

Q: For `CNC(C)C(=O)c1ccc(C(F)(F)F)cc1` (centres unmarked) [4-TFMMC, 4-trifluoromethyl-N-methylcathinone], which “extracellular DA” value (extracellular DA) is on record?
A: did not affect extracellular DA

Q: What about the IC50 (human DAT) of the same compound?
A: > 100 µM
